Assays:
[1] = Pharmacokinetic study of oral vs intra-cecal administration of tacrolimus (Example 13); set-up: species or system Yorkshire-Cross farm swine; details: female, Yorkshire-Cross, in vivo, 0.09 mg/kg
Text: (§1) No further randomization procedure was employed.

[2] = Tissue, plasma and GI content pharmacokinetics of tacrolimus, oral vs intra-cecal ingestible device (Example 10); set-up: species or system Yorkshire-Cross farm swine; details: in vivo
Method: The primary objective of this study was to compare the tissue, plasma, rectal sample, and GI content pharmacokinetics of tacrolimus through oral versus intra-cecal ingestible device delivery in normal Yorkshire-Cross farm swine.
as §1
Animals in Group 1 received an ingestible device containing 0.8 mL of vehicle solution (80% alcohol, 20% HCO-60). Animals in Group 2 received orally […] liquid formulation of tacrolimus at 4 mg/0.8 mL per animal (Prograf: 5 mg/mL). Animals in Group 3 received intracecally an ingestible device containing tacrolimus at 1 mg in 0.8 mL per ingestible device. […]
Approximately 200˜400 mg of rectal content were collected, if available, with a fecal swab (Copan Diagnostics Nylon Flocked Dry Swabs, 502CS01). The fecal swab was pre-weighed and weighed after collection in the collection tube (Sterile Tube and Cap No Media, PFPM913S), and the sample weight was recorded. […]
For tissue necropsy, small intestine fluid and cecal fluid were collected separately from all the animals into two separate square plastic bottles, and stored at −20° C. The length and diameter of the cecum and the colon was measured from one animal in each group and recorded for reference. […] All samples were weighed, and the tissue sample weights were recorded. […]

## C=CC[C@@H]1/C=C(\C)C[C@H](C)C[C@H](OC)[C@H]2O[C@@](O)(C(=O)C(=O)N3CCCC[C@H]3C(=O)O[C@H](/C(C)=C/[C@@H]3CC[C@@H](O)[C@H](OC)C3)[C@H](C)[C@@H](O)CC1=O)[C@H](C)C[C@@H]2OC [tacrolimus]
[1]; pig, 12 h
  Ratio Tissue (mean) (ng/g)/AUG(0-12 hr) (ng · hr/mL): 0
  Trough (12 hr): 0.568 ng/mL
[1]; swine
  Kp at 12 h: 0
[1]; swine, 12 h
  Ratio Tissue (mean) (ng/g)/Tough(12 hr)(ng/mL): 0
[2]
  level detected in tissue: No measurable level

— patent US20220135666A1, “TREATMENT OF A DISEASE OF THE GASTROINTESTINAL TRACT WITH A S1P MODULATOR” (Progenity, Inc., priority 2017, published 2022)
